Test system: U251
Assay: U251 Vacuolization Assay (24h)
Assay type: cell-based
Details: Homo sapiens, U-251
Experimental: As used herein the term “EC50 (μM)” refers to the μM concentration of a compound that is required for 50% activity in a vacuolization assay.
Example A—U251 Vacuolization Assay Data (24h) for Compounds of Examples 8-56

Row | Compound | EC50 [µM]
1 | Cc1ccc(Nc2nc(NCc3c[nH]c4ccccc34)nc(N3CCOCC3)n2)cc1 [Example 8, N-(1H-Indol-3-ylmethyl)-6-morpholin-4-yl-N′-p-tolyl-[1,3,5]triazine-2,4-diamine] | 1 to 10
2 | Cc1cccc(Nc2nc(N/N=C/c3c[nH]c4ccccc34)nc(N3CCOCC3)n2)c1 [Example 9, {4-[N′-(1H-Indol-3-ylmethylene)-hydrazino]-6-morpholin-4-yl-[1,3,5]triazin-2-yl}-m-tolyl-amine] | ≤ 1
3 | Fc1ccc(Nc2nc(N/N=C/c3c[nH]c4ccccc34)nc(N3CCOCC3)n2)cc1 [Example 10, (4-Fluoro-phenyl)-{4-[N′-(1H-indol-3-ylmethylene)-hydrazino]-6-morpholin-4-yl-[1,3,5]triazin-2-yl}-amine] | ≤ 1
4 | Clc1ccc(Nc2nc(N/N=C/c3c[nH]c4ccccc34)nc(N3CCOCC3)n2)cc1 [Example 11, (E)-4-(2-((1h-indol-3-yl)methylene)hydrazinyl)-n-(4-chlorophenyl)-6-morpholino-1,3,5-triazin-2-amine] | ≤ 1
5 | COc1ccc(Nc2nc(N/N=C/c3c[nH]c4ccccc34)nc(N3CCOCC3)n2)cc1 [Example 12, {4-[N′-(1H-Indol-3-ylmethylene)-hydrazino]-6-morpholin-4-yl-[1,3,5]triazin-2-yl}-(4-methoxy-phenyl)-amine] | ≤ 1
6 | Cc1ccc(Nc2nc(NCCO)nc(N/N=C/c3c[nH]c4ccccc34)n2)cc1 [Example 13, 2-{4-[N′-(1H-Indol-3-ylmethylene)-hydrazino]-6-p-tolylamino-[1,3,5]triazin-2-ylamino}-ethanol] | > 50
7 | Cc1ccc(Nc2nc(N/N=C/c3c[nH]c4ccccc34)nc(N(CCO)CCO)n2)cc1 [Example 14, 2-((2-Hydroxy-ethyl)-{4-[N′-(1H-indol-3-ylmethylene)-hydrazino]-6-p-tolylamino-[1,3,5]triazin-2-yl}-amino)-ethanol] | > 50
8 | Cc1ccc(Nc2nc(N/N=C/c3c[nH]c4ccccc34)nc(N3CCCCC3)n2)cc1 [Example 15, {4-[N′-(1H-Indol-3-ylmethylene)-hydrazino]-6-piperidin-1-yl-[1,3,5]triazin-2-yl}-p-tolyl-amine] | > 50
9 | Cc1ccc(Nc2nc(N/N=C/c3c[nH]c4ccccc34)nc(N3CCCC3)n2)cc1 [Example 16, {4-[N′-(1H-Indol-3-ylmethylene)-hydrazino]-6-pyrrolidin-1-yl-[1,3,5]triazin-2-yl}-p-tolyl-amine] | > 50
10 | Cc1ccc(Nc2nc(N/N=C/c3c[nH]c4ccccc34)nc(N3CCN(C)CC3)n2)cc1 [Example 17, [4-[N′-(1H-Indol-3-ylmethylene)-hydrazino]-6-(4-methyl-piperazin-1-yl)-[1,3,5]triazin-2-yl]-p-tolyl-amine] | > 50
11 | Cc1ccc(Nc2nc(N/N=C/c3c[nH]c4ccccc34)nc(N3CCNCC3)n2)cc1 [Example 18, {4-[N′-(1H-Indol-3-ylmethylene)-hydrazino]-6-piperazin-1-yl-[1,3,5]triazin-2-yl}-p-tolyl-amine] | > 50
12 | Cc1ccccc1Nc1nc(N/N=C/c2c[nH]c3ccccc23)nc(N2CCOCC2)n1 [Example 19, {4-[N′-(1H-Indol-3-ylmethylene)-hydrazino]-6-morpholin-4-yl-[1,3,5]triazin-2-yl}-o-tolyl-amine] | ≤ 1
13 | FC(F)(F)c1ccc(Nc2nc(N/N=C/c3c[nH]c4ccccc34)nc(N3CCOCC3)n2)cc1 [Example 20, (E)-4-(2-((1h-indol-3-yl)methylene)hydrazinyl)-6-morpholino-n-(4-(trifluoromethyl)phenyl)-1,3,5-triazin-2-amine] | ≤ 1
14 | Brc1ccc(Nc2nc(N/N=C/c3c[nH]c4ccccc34)nc(N3CCOCC3)n2)cc1 [Example 21, (E)-4-(2-((1h-indol-3-yl)methylene)hydrazinyl)-n-(4-bromophenyl)-6-morpholino-1,3,5-triazin-2-amine] | ≤ 1
15 | N#Cc1ccc(Nc2nc(N/N=C/c3c[nH]c4ccccc34)nc(N3CCOCC3)n2)cc1 [Example 22, (E)-4-((4-(2-((1H-indol-3-yl)methylene)hydrazinyl)-6-morpholino-1,3,5-triazin-2-yl)amino)benzonitrile] | ≤ 1
16 | Cc1ccc(Nc2nc(N/N=C\c3cccnc3)nc(N3CCOCC3)n2)cc1 [Example 23, [4-Morpholin-4-yl-6-(N′-pyridin-3-ylmethylene-hydrazino)-[1,3,5]triazin-2-yl]-p-tolyl-amine] | 1 to 10
17 | Cc1ccc(Nc2nc(N/N=C\c3cc[nH]c3)nc(N3CCOCC3)n2)cc1 [Example 24, {4-Morpholin-4-yl-6-[N′-(1H-pyrrol-3-ylmethylene)-hydrazino]-[1,3,5]triazin-2-yl}-p-tolyl-amine] | 10 to 50
18 | Clc1cccc(Nc2nc(N/N=C/c3c[nH]c4ccccc34)nc(N3CCOCC3)n2)c1 [Example 25, (3-Chloro-phenyl)-{4-[N′-(1H-indol-3-ylmethylene)-hydrazino]-6-morpholin-4-yl-[1,3,5]triazin-2-yl}-amine] | ≤ 1
19 | O=[N+]([O-])c1ccc(Nc2nc(N/N=C/c3c[nH]c4ccccc34)nc(N3CCOCC3)n2)cc1 [Example 26, (E)-4-(2-((1H-indol-3-yl)methylene)hydrazinyl)-6-morpholino-N-(4-nitrophenyl)-1,3,5-triazin-2-amine] | ≤ 1

Row | Compound | EC50 [µM]
20 | Nc1ccc(Nc2nc(N/N=C/c3c[nH]c4ccccc34)nc(N3CCOCC3)n2)cc1 [Example 27, N1-(4-(2-((1h-indol-3-yl)methylene)hydrazinyl)-6-morpholino-1,3,5-triazin-2-yl)benzene-1,4-diamine] | ≤ 1
21 | CC(=O)Nc1ccc(Nc2nc(N/N=C/c3c[nH]c4ccccc34)nc(N3CCOCC3)n2)cc1 [Example 28, (E)-N-(4-((4-(2-((1H-indol-3-yl)methylene)hydrazinyl)-6-morpholino-1,3,5-triazin-2-yl)amino)phenyl)acetamide] | ≤ 1
22 | COCCN(CCOC)c1nc(N/N=C/c2c[nH]c3ccccc23)nc(Nc2ccc(C)cc2)n1 [Example 29, (E)-6-(2-((1H-Indol-3-yl)methylene)hydrazinyl)-N2,N2-bis(2-methoxyethyl)-N4-(p-tolyl)-1,3,5-triazine-2,4-diamine] | > 50
23 | Cc1ccc(Nc2nc(N/N=C/c3c[nH]c4ccccc34)nc(N(C)C)n2)cc1 [Example 30, (E)-6-(2-((1H-Indol-3-yl)methylene)hydrazinyl)-N2,N2-dimethyl-N4-(p-tolyl)-1,3,5-triazine-2,4-diamine] | > 50
24 | Cc1ccc(Nc2nc(N/N=C\c3csc4ccccc34)nc(N3CCOCC3)n2)cc1 [Example 31, [4-(N′-Benzo[b]thiophen-3-ylmethylene-hydrazino)-6-morpholin-4-yl-[1,3,5]triazin-2-yl]-p-tolyl-amine] | 1 to 10
25 | Cc1ccc(Nc2nc(N/N=C/c3ccncc3)nc(N3CCOCC3)n2)cc1 [Example 32, [4-Morpholin-4-yl-6-(N′-pyridin-4-ylmethylene-hydrazino)-[1,3,5]triazin-2-yl]-p-tolyl-amine] | 1 to 10
26 | Cc1ccc(Nc2nc(N/N=C/c3ccccc3)nc(N3CCOCC3)n2)cc1 [Example 33, [4-(N′-Benzylidene-hydrazino)-6-morpholin-4-yl-[1,3,5]triazin-2-yl]-p-tolyl-amine] | ≤ 1
27 | CN(C)c1ccc(Nc2nc(N/N=C/c3c[nH]c4ccccc34)nc(N3CCOCC3)n2)cc1 [Example 34, (E)-N1-(4-(2-((1H-indol-3-yl)methylene)hydrazinyl)-6-morpholino-1,3,5-triazin-2-yl)-N4,N4-dimethylbenzene-1,4-diamine] | ≤ 1
28 | CCN(C)c1nc(N/N=C/c2c[nH]c3ccccc23)nc(Nc2ccc(C)cc2)n1 [Example 35, (E)-6-(2-((1H-Indol-3-yl)methylene)hydrazinyl)-N2-ethyl-N2-methyl-N4-(p-tolyl)-1,3,5-triazine-2,4-diamine] | > 50
29 | Cc1ccc(Nc2nc(N/N=C/c3c[nH]c4ccccc34)nc(N3CCC3)n2)cc1 [Example 36, (E)-4-(2-((1H-Indol-3-yl)methylene)hydrazinyl)-6-(azetidin-1-yl)-N-(p-tolyl)-1,3,5-triazin-2-amine] | > 50
30 | Cc1ccc(Nc2nc(N/N=C/c3c[nH]c4ccccc34)nc(N3CCC(O)CC3)n2)cc1 [Example 37, (E)-1-(4-(2-((1H-Indol-3-yl)methylene)hydrazinyl)-6-(p-tolylamino)-1,3,5-triazin-2-yl)piperidin-4-ol] | > 50
31 | Cc1ccc(Nc2nc(N/N=C/c3c[nH]c4ccccc34)nc(N3CCSCC3)n2)cc1 [Example 38, (E)-4-(2-((1H-Indol-3-yl)methylene)hydrazinyl)-6-thiomorpholino-N-(p-tolyl)-1,3,5-triazin-2-amine] | > 50
32 | Cc1ccc(Nc2cc(N/N=C/c3c[nH]c4ccccc34)nc(N3CCOCC3)n2)cc1 [Example 39] | 1 to 10
33 | Cc1ccc(Nc2cc(-n3ncc4c5ccccc5[nH]c43)nc(N3CCOCC3)n2)cc1 [Example 40, [2-morpholin-4-yl-6-(8H-pyrazolo[3,4-b]indol-1-yl)-pyrimidin-4-yl]-p-tolyl-amine] | 10 to 50
34 | Cc1ccc(Nc2cc(N3CCOCC3)nc(N/N=C/c3c[nH]c4ccccc34)n2)cc1 [Example 41, {2-[N′-(1H-indol-3-ylmethylene)-hydrazino]-6-morpholin-4-yl-pyrimidin-4-yl}-p-tolyl-amine] | 1 to 10
35 | Clc1ccccc1Nc1nc(N/N=C/c2c[nH]c3ccccc23)nc(N2CCOCC2)n1 [Example 42, (2-Chloro-phenyl)-{4-[N′-(1H-indol-3-ylmethylene)-hydrazino]-6-morpholin-4-yl-[1,3,5]triazin-2-yl}-amine] | ≤ 1
36 | Cc1ccc(Nc2nc(N/N=C/c3ccccn3)nc(N3CCOCC3)n2)cc1 [Example 43, [4-Morpholin-4-yl-6-(N′-pyridin-2-ylmethylene-hydrazino)-[1,3,5]triazin-2-yl]-p-tolyl-amine] | 1 to 10
37 | Cc1ccc(Nc2nc(N/N=C/c3cc4ccccc4[nH]3)nc(N3CCOCC3)n2)cc1 [Example 44, {4-[N′-(1H-Indol-2-ylmethylene)-hydrazino]-6-morpholin-4-yl-[1,3,5]triazin-2-yl}-p-tolyl-amine] | 1 to 10

Source: patent US12030896B2, “PIKfyve inhibitors” (Mayo Foundation for Medical Education and Research, priority 2018, dated 2024)
